Three molecules from patent US12692261B2, “Substituted heterocyclic compounds and therapeutic uses thereof” (Bayer Aktiengesellschaft, priority 2020, dated 2026) can be followed below.

Read-outs that look alike come from different tables or passages of the source.

Assay type in all cases: biochemical
For experiment [1], the target named is T1, wild-type Epidermal Growth Factor Receptor (EGFR) (Homo sapiens, UniProt P00533).
T1 construct: a fragment of human EGFR (amino acids R669 to A1210); made in house; host or cells: Sf9 insect cells
T1 sequence (P00533 669-1210): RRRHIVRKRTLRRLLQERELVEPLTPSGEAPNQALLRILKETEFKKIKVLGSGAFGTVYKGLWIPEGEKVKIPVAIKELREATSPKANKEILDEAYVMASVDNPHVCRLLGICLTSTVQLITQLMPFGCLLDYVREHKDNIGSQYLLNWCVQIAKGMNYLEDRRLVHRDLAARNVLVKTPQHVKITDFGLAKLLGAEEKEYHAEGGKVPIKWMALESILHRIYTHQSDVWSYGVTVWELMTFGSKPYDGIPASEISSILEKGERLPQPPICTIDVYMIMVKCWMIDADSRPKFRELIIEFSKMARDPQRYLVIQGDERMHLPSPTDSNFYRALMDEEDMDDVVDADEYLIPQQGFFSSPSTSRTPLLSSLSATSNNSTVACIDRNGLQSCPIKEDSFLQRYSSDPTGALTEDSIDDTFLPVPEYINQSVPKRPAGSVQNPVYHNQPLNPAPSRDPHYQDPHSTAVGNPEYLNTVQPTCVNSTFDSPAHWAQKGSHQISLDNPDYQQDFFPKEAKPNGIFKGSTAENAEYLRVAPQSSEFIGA
In words: WT-EGFR Kinase Assay (TR-FRET, 2 mM ATP). The source says: Inhibitory activity of compounds of the present invention against wild-type Epidermal Growth Factor Receptor (EGFR) was quantified employing the TR-FRET based EGFR assay as described in the following paragraphs.
Recombinant fusion protein of N-terminal Glutathion-S-Transferase (GST) and a fragment of human EGFR (amino acids R669 to A1210), expressed in Sf9 insect cells and purified via affinity chromatography using Glutathion Sepharose as described above, was used as kinase. As substrate for the kinase reaction the biotinylated peptide biotin-Ahx-[…] (C-terminus in amide form) was used which can be purchased e.g. form the company Biosynthan GmbH (Berlin-Buch, Germany).
For the assay 50 nl of a 100 fold concentrated solution of the test compound in DMSO was pipetted into either a black low volume 384 well microtiter plate or a black 1536 well microtiter plate (both Greiner Bio-One, Frickenhausen, Germany), 2 μL of a solution of EGFR in aqueous assay buffer [50 mM Hepes pH 7.0, 10 mM MgCl2, 1 mM dithiothreitol, 0.5 mM EGTA, 0.3 mM activated sodium ortho-vanadate, 0.005% (w/v) bovine serum albumin, 0.005% (v/v) Tween-20] were added and the mixture was incubated for 15 min at 22° C. to allow pre-binding of the test compounds to the enzyme before the start of the kinase reaction. […] The concentration of EGFR was adjusted depending of the activity of the enzyme lot and was chosen appropriate to have the assay in the linear range, typical concentration was 7.6 pg/μL. The reaction was stopped by the addition of 3 μL of a solution of HTRF detection reagents (83.3 nM streptavidine-XL665 [Cisbio Bioassays, Codolet, France] and 1.67 nM PT66-Tb-Cryptate, a terbium-cryptate labelled anti-phospho-tyrosine antibody from Cisbio Bioassays [instead of the PT66-Tb-cryptate PT66-Eu-Chelate from Perkin Elmer can also be used]) in an aqueous EDTA-solution (133.3 mM EDTA, 0.2% (w/v) bovine serum albumin in 50 mM HEPES pH 7.5).
The resulting mixture was incubated 1 h at 22° C. to allow the binding of the biotinylated phosphorylated peptide to the streptavidine-XL665 and the PT66-Tb-Cryptate. Subsequently the amount of phosphorylated substrate was evaluated by measurement of the resonance energy transfer from the PT66-Tb-Cryptate to the streptavidine-XL665. Therefore, the fluorescence emissions at 620 nm and 665 nm after excitation at 337 nm were measured in a HTRF reader, e.g. a Pherastar (BMG Labtechnologies, Offenburg, Germany) or a Viewlux (Perkin-Elmer). The ratio of the emissions at 665 nm and at 622 nm was taken as the measure for the amount of phosphorylated substrate.

In experiment [2] the target is T2, full-length human CSNK1A1 (Homo sapiens, UniProt P48729).
T2 construct: N-terminal Glutathion-S-Transferase (GST) and full-length human CSNK1A1; purchased Life Technologies PV4174; host or cells: baculovirus infected insect cells
T2 sequence (P48729 whole entry): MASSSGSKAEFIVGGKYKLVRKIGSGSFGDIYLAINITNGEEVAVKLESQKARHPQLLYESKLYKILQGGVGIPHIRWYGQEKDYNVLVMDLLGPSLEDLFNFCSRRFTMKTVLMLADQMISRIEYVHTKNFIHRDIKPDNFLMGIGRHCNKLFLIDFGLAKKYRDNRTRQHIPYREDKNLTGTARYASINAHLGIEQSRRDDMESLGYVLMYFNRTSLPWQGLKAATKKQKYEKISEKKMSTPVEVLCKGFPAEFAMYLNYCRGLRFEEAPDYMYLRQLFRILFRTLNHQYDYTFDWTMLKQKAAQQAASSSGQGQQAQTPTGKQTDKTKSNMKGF
As to the kind of experiment: CSNK1A1 High ATP Assay (ADP-Glo, 1 mM ATP).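 Note: 30 min kinase reaction at 22 °C with 100 µM peptide substrate.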 Conditions: Table 3, read-out: CSNK1A1 high ATP assay IC50 [mol/l] (median). On the procedure: CSNK1A1-inhibitory activity of compounds of the present invention in presence of 1 mM adenosine-tri-phosphate (ATP) was quantified employing the CSNK1A1-high-ATP-assay as described in the following paragraphs. In essence, the enzyme activity is measured by quantification of the adenosine-di-phosphate (ADP), which is generated as a co-product of the enzyme reaction, via the “ADP-Glo™ Kinase Assay” kit from the company Promega. This detection system works as follows: In a first step the ATP not consumed in the kinase reaction is quantitatively converted to cAMP employing an adenylate cyclase (“ADP-Glo-reagent”), then the adenylate cyclase is stopped and the ADP generated in the kinase reaction converted to ATP which generates in a luciferase-based reaction a glow-luminescence signal (“Kinase Detection Reagent”).
(§1) Recombinant fusion protein of N-terminal Glutathion-S-Transferase (GST) and full-length human CSNK1A1, expressed by baculovirus infected insect cells and purified via Glutathion affinity chromatography, was purchased from Life Technologies (product no. PV4174) and used as enzyme. As substrate for the kinase reaction the biotinylated peptide biotin-Ahx-KRRRAL-pS-VASLPGL (C-terminus in amide form) was used which can be purchased e.g. from the company Biosyntan (Berlin-Buch, Germany).
For the assay 50 nl of a 100 fold concentrated solution of the test compound in DMSO was pipetted into a white low volume 384-well microtiter plate (Greiner Bio-One, Frickenhausen, Germany), 2 μL of a solution of CSNK1A1 in aqueous assay buffer [50 mM HEPES pH 7.5, 10% (v/v) glycerol, 10 mM MgCl2, 50 mM NaCl, 1 mM dithiothreitol, 0.01% (w/v) bovine serum albumin, 0.01% (v/v) Triton X-100] were added and the mixture was incubated for 15 min at 22° C. to allow pre-binding of the test compounds to the enzyme before the start of the kinase reaction. […] The concentration of CSNK1A1 was adjusted depending of the activity of the enzyme lot and was chosen appropriate to have the assay in the linear range, a typical concentration is about 0.4 ng/μL. The reaction was stopped by the addition of 2.5 μL of “ADP-Glo-reagent” (1:1.5 fold diluted with water) and the resulting mixture was incubated at 22° C. for 1 h to convert the ATP not consumed in the kinase reaction completely […]. Subsequently 2.5 μL of the “kinase detection reagent” (1.2 fold more concentrated than recommended by the producer) were added, the resulting mixture was incubated at 22° C. for 1 h and then the luminescence measured with a suitable measurement instrument (e.g. Viewlux™ from Perkin-Elmer). The amount of emitted light was taken as a measure for the amount of ADP generated and thereby for the activity of the CSNK1A1.
(In general: In ADP-Glo the light output rises with the ADP produced.)

In experiment [3] the target is T2, full-length human CSNK1A1. As to the kind of experiment: CSNK1A1 Assay 2 (ADP-Glo, 1 μM ATP, substrate biotin-Ahx-KRRRAL-pS-VASLPGL). Conditions: Table 3, read-out: CSNK1A1 Assay 2 IC50 [mol/l] (median). As to the method: CSNK1A1-inhibitory activity of compounds of the present invention in presence of 1 μM adenosine-tri-phosphate (ATP) was quantified employing the CSNK1A1 assay as described in the following paragraphs. In essence, the enzyme activity is measured by quantification of the adenosine-di-phosphate (ADP), which is generated as a co-product of the enzyme reaction, via the “ADP-Glo™ Kinase Assay” kit from the company Promega. This detection system works as follows: In a first step the ATP not consumed in the kinase reaction is quantitatively converted to cAMP employing an adenylate cyclase (“ADP-Glo-reagent”), then the adenylate cyclase is stopped and the ADP generated in the kinase reaction converted to ATP which generates in a luciferase-based reaction a glow-luminescence signal (“Kinase Detection Reagent”).
as §1
For the assay 50 nl of a 100 fold concentrated solution of the test compound in DMSO was pipetted into a white 1536-well microtiter plate (Greiner Bio-One, Frickenhausen, Germany), 2 μL of a solution of CSNK1A1 in aqueous assay buffer [50 mM HEPES pH 7.5, 10% (v/v) glycerol, 10 mM MgCl2, 50 mM NaCl, 1 mM dithiothreitol, 0.01% (w/v) bovine serum albumin, 0.01% (v/v) Triton X-100] were added and the mixture was incubated for 15 min at 22° C. to allow pre-binding of the test compounds to the enzyme before the start of the kinase reaction. […] The concentration of CSNK1A1 was adjusted depending of the activity of the enzyme lot and was chosen appropriate to have the assay in the linear range, a typical concentrations are about 0.0375 ng/μL. The reaction was stopped by the addition of 2.5 μL of “ADP-Glo-reagent” (1:1.5 fold diluted with water) and the resulting mixture was incubated at 22° C. for 1 h to convert the ATP not consumed in the kinase reaction completely […]. Subsequently 2.5 μL of the “kinase detection reagent” (1.2 fold more concentrated than recommended by the producer) were added, the resulting mixture was incubated at 22° C. for 1 h and then the luminescence measured with a suitable measurement instrument (e.g. Viewlux™ from Perkin-Elmer). The amount of emitted light was taken as a measure for the amount of ADP generated and thereby for the activity of the CSNK1A1.

[4] abbreviates: EGFR Wildtyp 2 mM ATP IC50 [mol/l] (median), Table 4.

Consider `O=C(Nc1cc(-c2[nH]c3c(OCC(F)F)ccnc3c2-c2ccccn2)ccn1)C(CC(F)F)c1ccc(F)cc1` (racemic) [Example 75, (2RS)—N-{4-[7-(2,2-difluoroethoxy)-3-(pyridin-2-yl)-1H-pyrrolo[3,2-b]pyridin-2-yl]pyridin-2-yl}-4,4-difluoro-2-(4-fluorophenyl)butanamide], for which the IC50 was > 20000 nM in experiment [1] (setting [4]), 4.37 nM in experiment [2] and 4.37 nM in experiment [3].
For the molecule `O=C(Nc1cc(-c2[nH]c3c(OCC(F)F)ccnc3c2-c2ccccn2)ccn1)C(CC(F)F)c1ccc(F)cc1` (single isomer, unassigned) [Example 76, (2R or S)—N-{4-[7-(2,2-difluoroethoxy)-3-(pyridin-2-yl)-1H-pyrrolo[3,2-b]pyridin-2-yl]pyridin-2-yl}-4,4-difluoro-2-(4-fluorophenyl)butanamide], the IC50 in experiment [1] (setting [4]) is > 20000 nM; in experiment [2], 2.94 nM; in experiment [3], 2.94 nM.
`O=C(Nc1cc(-c2[nH]c3c(OCC(F)F)ccnc3c2-c2ccccn2)ccn1)C(CC(F)F)c1ccc(F)cc1` (single isomer, unassigned) [Example 77, (2R or S)—N-{4-[7-(2,2-difluoroethoxy)-3-(pyridin-2-yl)-1H-pyrrolo[3,2-b]pyridin-2-yl]pyridin-2-yl}-4,4-difluoro-2-(4-fluorophenyl)butanamide]: the IC50 was > 20000 nM in experiment [1] (read-out: EGFR Wildtyp 2 mM ATP IC50 [mol/l] (median), Table 4); 7.2 nM in experiment [2]; 7.2 nM in experiment [3].
